Results reported in patent US10294236B2, “Compounds as rearranged during transfection (RET) inhibitors” (GLAXOSMITHKLINE INTELLECTUAL PROPERTY DEVELOPMENT LIMITED, priority 2014, dated 2019).
Counter-ions that a name gives are not always drawn.

The compounds below were run against T1, Human RET kinase cytoplasmic domain (Homo sapiens, UniProt P07949) (assay: RET kinase enzymatic assay).
T1 construct: made in house
T1 sequence (P07949 658-1114): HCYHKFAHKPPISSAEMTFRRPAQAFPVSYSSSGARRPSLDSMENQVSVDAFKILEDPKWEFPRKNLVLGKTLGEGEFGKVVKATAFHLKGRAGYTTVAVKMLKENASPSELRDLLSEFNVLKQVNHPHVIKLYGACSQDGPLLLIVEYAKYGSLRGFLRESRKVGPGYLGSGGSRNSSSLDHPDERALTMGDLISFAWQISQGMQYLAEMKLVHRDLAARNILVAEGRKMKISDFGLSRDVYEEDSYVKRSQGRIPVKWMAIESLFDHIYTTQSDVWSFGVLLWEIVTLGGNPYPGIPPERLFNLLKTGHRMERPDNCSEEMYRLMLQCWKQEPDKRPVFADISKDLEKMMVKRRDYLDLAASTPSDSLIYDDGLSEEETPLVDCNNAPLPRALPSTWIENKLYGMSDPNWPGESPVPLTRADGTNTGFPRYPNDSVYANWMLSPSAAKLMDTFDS
Format: biochemical
Procedure, shortened: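 GST-RET, 0.2 nM in 2× enzyme mix (HEPES, CHAPS, BSA, DTT), preincubated with inhibitor 30 min at 23 °C. Reaction for 1 h at 23 °C after adding 2× substrate mix: 20 μM ATP, 20 mM MgCl2, 1 μM biotinylated peptide. Single wells per concentration; IC50 from sigmoidal dose-response fit.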

`CCOc1cc(=O)[nH]cc1-c1ncc(NC(=O)Nc2ccc(C(C)C#N)c(C(F)(F)F)c2)c(C)n1` (stereo not shown) [Example 24, 1-(4-(1-Cyanoethyl)-3-(trifluoromethyl)phenyl)-3-(2-(4-ethoxy-6-oxo-1,6-dihydropyridin-3-yl)-4-methylpyrimidin-5-yl)urea] and `CCOc1cc(=O)[nH]cc1-c1ncc(NC(=O)Nc2ccc(C(C)(C)O)c(C(F)(F)F)c2)c(C)n1` [Example 51, 1-(2-(4-Ethoxy-6-oxo-1,6-dihydropyridin-3-yl)-4-methylpyrimidin-5-yl)-3-(4-(2-hydroxypropan-2-yl)-3-(trifluoromethyl)phenyl)urea] cannot be ordered by IC50: < 100 nM for the first, < 100 nM for the second.

First: CCOc1cc(-c2ccc(NC(=O)Nc3ccc(OC4(C)COC4)c(C(F)(F)F)c3)c(OC)n2)c[nH]c1=O [Example 110]
Second: CCOc1cc(-c2ccc(NC(=O)Nc3ccc(OC4(C)COC4)c(C(F)(F)F)c3)c(OC(C)C)n2)c[nH]c1=O [Example 115]
The IC50 of the first is lower: < 100 nM for the first, 500 to 10000 nM for the second. The first is the more potent here.

`CC1(Oc2ccc(NC(=O)Nc3ccc(-c4c[nH]c(=O)c5c4OCC5)cc3F)cc2C(F)(F)F)COC1` [Example 22, 1-(2-Fluoro-4-(4-oxo-2,3,4,5-tetrahydrofuro[3,2-c]pyridin-7-yl)phenyl)-3-(4-((3-methyloxetan-3-yl)oxy)-3-(trifluoromethyl)phenyl)urea] and `CCOc1cc(-c2ccc(NC(=O)Nc3ccc(OC4(C)COC4)c(C(F)(F)F)c3)c(C)n2)c[nH]c1=O` [Example 50, 1-(5′-Ethoxy-6-methyl-6′-oxo-1′,6′-dihydro-[2,3′-bipyridin]-5-yl)-3-(4-((3-methyloxetan-3-yl)oxy)-3-(trifluoromethyl)phenyl)urea hydrochloride] cannot be ordered by IC50: < 100 nM for the first, < 100 nM for the second.

`CCOc1cc(-c2ccc(NC(=O)Nc3ccc(OC4(C)COC4)c(C(F)(F)F)c3)nc2)c[nH]c1=O` [Example 27, 1-(5′-Ethoxy-6′-oxo-1′,6′-dihydro-[3,3′-bipyridin]-6-yl)-3-(4-((3-methyloxetan-3-yl)oxy)-3-(trifluoromethyl)phenyl)urea] and `CCOc1cc(-c2cnc(NC(=O)Nc3ccc(OC4(C)COC4)c(C(F)(F)F)c3)c(F)c2)c[nH]c1=O` [Example 103] cannot be ordered by IC50: < 100 nM for the first, < 100 nM for the second.

`CCOc1ccc(NC(=O)Nc2ccc(-c3c[nH]c(=O)c4ccoc34)cc2F)cc1C(F)(F)F` [Example 98] and `CCOc1cc(-c2ccc(NC(=O)Nc3ccc(C(N)=O)c(C(F)(F)F)c3)c(F)c2)c[nH]c1=O` [Example 162] cannot be ordered by IC50: < 100 nM for the first, < 100 nM for the second.

`CCOc1cc(-c2cnc(NC(=O)Nc3ccc(CC(C)(C)CO)c(C(F)(F)F)c3)c(C)c2)c[nH]c1=O` [Example 9, 1-(5′-Ethoxy-5-methyl-6′-oxo-1′,6′-dihydro-[3,3′-bipyridin]-6-yl)-3-(4-(3-hydroxy-2,2-dimethylpropyl)-3-(trifluoromethyl)phenyl)urea] and `CCOc1cc(=O)[nH]cc1-c1ncc(NC(=O)Nc2ccc(CC(C)(C)CO)c(C(F)(F)F)c2)c(C)n1` [Example 47, 1-(2-(4-Ethoxy-6-oxo-1,6-dihydropyridin-3-yl)-4-methylpyrimidin-5-yl)-3-(4-(3-hydroxy-2,2-dimethylpropyl)-3-(trifluoromethyl)phenyl)urea] cannot be ordered by IC50: < 100 nM for the first, < 100 nM for the second.

`Cc1nc(-c2c[nH]c(=O)c3occc23)ncc1NC(=O)Nc1cnc(C(C)(C)O)c(C(F)(F)F)c1` [Example 39, 1-(6-(2-Hydroxypropan-2-yl)-5-(trifluoromethyl)pyridin-3-yl)-3-(4-methyl-2-(7-oxo-6,7-dihydrofuro[2,3-c]pyridin-4-yl)pyrimidin-5-yl)urea] and `CCOc1cc(-c2ncc(NC(=O)Nc3ccc(C(C)N)c(C(F)(F)F)c3)c(C)n2)c[nH]c1=O` (stereo not shown) [Example 175, 1-(4-(1-Aminoethyl)-3-(trifluoromethyl)phenyl)-3-(2-(5-ethoxy-6-oxo-1,6-dihydropyridin-3-yl)-4-methylpyrimidin-5-yl)urea] cannot be ordered by IC50: < 100 nM for the first, < 100 nM for the second.

`CCOc1cc(-c2ccc(NC(=O)Nc3ccc(C(C)C#N)c(C(F)(F)F)c3)c(F)c2)c[nH]c1=O` (stereo not shown) [Example 127] and `CCOc1cc(-c2ncc(NC(=O)Nc3ccc(OC4(C)COC4)c(C(F)(F)F)c3)c(C)n2)c[nH]c1=O` [Example 96] cannot be ordered by IC50: < 100 nM for the first, < 100 nM for the second.
